In brackets after ≈: the same amount, converted by molar mass.
Legend:
[1] = tested on: S. aureus ATCC 106414 (VISA); assay: MIC, microdilution method (9.1); type: cell-based, Staphylococcus aureus; details: Staphylococcus aureus, read after 18 h, read-out: MIC
Procedure, shortened: (§1)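 Antibacterial activity was determined by the microdilution technique recommended in CLSI document M07-A8, at 37° C. in ambient air with Mueller Hinton medium and a final bacterial load of 5×10^5 CFU/ml.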

S. aureus ATCC 25923 = assay: MIC, microdilution method (9.1); type: cell-based, Staphylococcus aureus; details: Staphylococcus aureus, ATCC25923, read after 18 h, read-out: MIC
Procedure, shortened: as §1

S. aureus ATCC 29213 = assay: MIC, microdilution method (9.1); type: cell-based, Staphylococcus aureus; details: Staphylococcus aureus, ATCC29213, read after 18 h, read-out: MIC
Procedure, shortened: as §1

[2] = tested on: S. aureus ATCC 33592 (MRSA); assay: MIC, microdilution method (9.1); type: cell-based, Staphylococcus aureus; details: Staphylococcus aureus, read after 18 h, read-out: MIC
Procedure, shortened: as §1

S. aureus ATCC 6538 = assay: MIC, microdilution method (9.1); type: cell-based, Staphylococcus aureus; details: Staphylococcus aureus, ATCC6538, read after 18 h, read-out: MIC
Procedure, shortened: as §1

S. aureus ATCC 9144 = assay: MIC, microdilution method (9.1); type: cell-based, Staphylococcus aureus; details: Staphylococcus aureus, ATCC9144, read after 18 h, read-out: MIC
Procedure, shortened: as §1

S. aureus CIP 103428 = assay: MIC, microdilution method (9.1); type: cell-based, Staphylococcus aureus; details: Staphylococcus aureus, CIP103428, read after 18 h, read-out: MIC
Procedure, shortened: as §1

[3] = tested on: S. aureus CIP 65.25 (MRSA); assay: MIC, microdilution method (9.1); type: cell-based, Staphylococcus aureus; details: Staphylococcus aureus, read after 18 h, read-out: MIC
Procedure, shortened: as §1

S. aureus CIP 65.6 = assay: MIC, microdilution method (9.1); type: cell-based, Staphylococcus aureus; details: Staphylococcus aureus, CIP65, read after 18 h, read-out: MIC
Procedure, shortened: as §1

S. aureus SA-1199B = assay: MIC, microdilution method (9.1); type: cell-based, Staphylococcus aureus; details: Staphylococcus aureus, SA1199B, 18 h
Procedure, shortened: as §1

[4] = tested on: S. epidermidis ATCC 12228; assay: MIC, microdilution method (9.1); type: cell-based, Staphylococcus epidermidis; details: Staphylococcus epidermidis, ATCC12228, read after 18 h, read-out: MIC
Procedure, shortened: as §1

[5] = tested on: S. epidermidis CIP 103627; assay: MIC, microdilution method (9.1); type: cell-based, Staphylococcus epidermidis; details: Staphylococcus epidermidis, CIP103627, read after 18 h, read-out: MIC
Procedure, shortened: as §1

S. epidermidis CIP 81.55 = assay: MIC, microdilution method (9.1); type: cell-based, Staphylococcus epidermidis; details: Staphylococcus epidermidis, CIP81, read after 18 h, read-out: MIC
Procedure, shortened: as §1

[6] = tested on: HCT116 (human colon tumor); assay: In vitro cytotoxicity; type: cell-based; details: read-out: % of cellular growth inhibition; for inhibition at 10 µM: HCT-116, 10^−5 M; for inhibition at 1 µM: HCT-116, 10^−6 M
Protocol: (§2) In vitro cytotoxicity was assayed on three cell lines—KB (human mouth carcinoma), MCR5 (human lung fibroblast) and HCT116 (human colon tumor). Results are presented in table IV as % of cellular growth inhibition in presence of 10^−5 M and 10^−6 M of the tested bis-indolic derivatives.

[7] = tested on: KB (human mouth carcinoma); assay: In vitro cytotoxicity; type: cell-based; details: read-out: % of cellular growth inhibition; for inhibition at 10 µM: 10^−5 M; for inhibition at 1 µM: 10^−6 M
Protocol: as §2

[8] = tested on: MRC5 (human lung fibroblast); assay: In vitro cytotoxicity; type: cell-based; details: read-out: % of cellular growth inhibition; for inhibition at 10 µM: 10^−5 M; for inhibition at 1 µM: 10^−6 M
Protocol: as §2

S. pneumoniae ATCC 6303 = assay: MIC, microdilution method (9.1); type: cell-based, Streptococcus pneumoniae; details: Streptococcus pneumoniae, ATCC6303, 10% sheep blood, 5% CO2, 18 h, read-out: MIC
Procedure, shortened: (§3)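 CLSI broth microdilution in Mueller Hinton broth, final inoculum 5×10^5 CFU/ml, with two-fold compound dilutions (0.50-128 mg/L final). Incubation at 37° C in ambient air, or 5% CO2 with 10% sheep blood for fastidious species.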

[9] = tested on: S. agalactiae (group B) ATCC 12400; assay: MIC, microdilution method (9.1); type: cell-based, Streptococcus agalactiae; details: Streptococcus agalactiae, ATCC12400, 18 h, read-out: MIC
Procedure, shortened: as §1

[10] = tested on: S. pyogenes (group A) CIP 104226; assay: MIC, microdilution method (9.1); type: cell-based, Streptococcus pyogenes; details: Streptococcus pyogenes, CIP104226, 18 h, read-out: MIC
Procedure, shortened: as §1

S. mitis CIP 103335 = assay: MIC, microdilution method (9.1); type: cell-based, Streptococcus mitis; details: Streptococcus mitis, CIP103335, 18 h, read-out: MIC
Procedure, shortened: as §1

E. faecium CIP 54.32 = assay: MIC, microdilution method (9.1); type: cell-based, Enterococcus faecium; details: Enterococcus faecium, CIP54, 18 h, read-out: MIC
Procedure, shortened: as §1

E. faecalis ATCC 29212 = assay: MIC, microdilution method (9.1); type: cell-based, Enterococcus faecalis; details: Enterococcus faecalis, ATCC29212, 18 h, read-out: MIC
Procedure, shortened: as §1

[11] = tested on: Acinetobacter baumanii ATCC 19606; assay: MIC, microdilution method (9.1); type: cell-based; details: Acinetobacter baumannii, ATCC19606, 18 h, read-out: MIC
Procedure, shortened: as §1

[12] = tested on: Bacillus subtilis CIP 5262; assay: MIC, microdilution method (9.1); type: cell-based; details: CIP5262, 18 h, read-out: MIC
Procedure, shortened: as §1

[13] = tested on: Enterobacter cloacae ATCC13047; assay: MIC, microdilution method (9.1); type: cell-based; details: 18 h
Procedure, shortened: as §1

[14] = tested on: Escherichia coli ATCC 25922; assay: MIC, microdilution method (9.1); type: cell-based; details: ATCC25922, 18 h
Procedure, shortened: as §1

[15] = tested on: Haemophilus influenzae ATCC 49766; assay: MIC, microdilution method (9.1); type: cell-based; details: ATCC49766; Haemophilus influenzae ATCC 49766; 10% sheep blood, 5% CO2; 18 h; read-out: MIC
Procedure, shortened: as §3

[16] = tested on: Klebsiella pneumoniae API ATCC 35657; assay: MIC, microdilution method (9.1); type: cell-based; details: ATCC35657, 18 h, read-out: MIC
Procedure, shortened: as §1

[17] = tested on: Listeria innocua CIP 80.11; assay: MIC, microdilution method (9.1); type: cell-based; details: CIP80, 18 h, read-out: MIC
Procedure, shortened: as §1

[18] = tested on: Pseudomonas aeruginosa CIP 5933; assay: MIC, microdilution method (9.1); type: cell-based; details: CIP5933, 18 h, read-out: MIC
Procedure, shortened: as §1

S. pneumoniae ATCC 49619 = assay: MIC, microdilution method (9.1); type: cell-based; details: Streptococcus pneumoniae, ATCC49619, 10% sheep blood, 5% CO2, 18 h
Procedure, shortened: as §3

[19] = tested on: Serratia marcescens CIP 103551; assay: MIC, microdilution method (9.1); type: cell-based; details: CIP103551, 18 h
Procedure, shortened: as §1

[20] = tested on: HCT116 (human colon tumor); assay: In vitro cytotoxicity; type: cell-based; details: HCT-116, HCT116, from 100 μM to 0.005 μM in DMSO, duplicate

Structure (SMILES)	MIC [1] [µg/mL]	MIC (S. aureus ATCC 25923) [µg/mL]	MIC (S. aureus ATCC 29213) [µg/mL]	MIC [2] [µg/mL]	MIC (S. aureus ATCC 6538) [µg/mL]	MIC (S. aureus ATCC 9144) [µg/mL]	MIC (S. aureus CIP 103428) [µg/mL]	MIC [3] [µg/mL]	MIC (S. aureus CIP 65.6) [µg/mL]	MIC (S. aureus SA-1199B) [µg/mL]	MIC [4] [µg/mL]	MIC [5] [µg/mL]	MIC (S. epidermidis CIP 81.55) [µg/mL]	inhibition at 10 µM [6] [%]	inhibition at 1 µM [6] [%]	inhibition at 10 µM [7] [%]	inhibition at 1 µM [7] [%]	inhibition at 10 µM [8] [%]	inhibition at 1 µM [8] [%]	melting point [°C]	also measured
O=C(NC(CO)c1c[nH]c2ccc(Br)cc12)c1c[nH]c2ccc(Br)cc12 (stereo not drawn) [Compound 13, 5-Bromo-N-(1-(5-bromo-1H-indol-3-yl)-2-hydroxyethyl)-1H-indole-3-carboxamide]	4 (≈ 8.38 µM)	4 (≈ 8.38 µM)	4 (≈ 8.38 µM)	4 (≈ 8.38 µM)	4 (≈ 8.38 µM)	4 (≈ 8.38 µM)	4 (≈ 8.38 µM)	4 (≈ 8.38 µM)	4 (≈ 8.38 µM)	8 (≈ 16.8 µM)	4 (≈ 8.38 µM)	4 (≈ 8.38 µM)	4 (≈ 8.38 µM)	12 ± 5	0	1 ± 4	0	6 ± 1	0	155	
CC(C)(C)OC(=O)NCC(NC(=O)c1c[nH]c2ccc(Br)cc12)c1c[nH]c2cc(Br)ccc12 (stereo not drawn) [Compound 3h, tert-Butyl (2-(6-bromo-1H-indol-3-yl)-2-(5-bromo-1H-indolyl-3-carboxamido)ethyl)carbamate]	1 (≈ 1.74 µM)	1 (≈ 1.74 µM)	1 (≈ 1.74 µM)	2 (≈ 3.47 µM)	1 (≈ 1.74 µM)	1 (≈ 1.74 µM)	2 (≈ 3.47 µM)	1 (≈ 1.74 µM)	2 (≈ 3.47 µM)	2 (≈ 3.47 µM)	1 (≈ 1.74 µM)	2 (≈ 3.47 µM)	1 (≈ 1.74 µM)	100 ± 3	0	100 ± 1	0	92 ± 1	0		MIC (S. pneumoniae ATCC 6303): 32 µg/mL (≈ 55.5 µM); MIC [9]: 32 µg/mL (≈ 55.5 µM); MIC [10]: 32 µg/mL (≈ 55.5 µM); MIC (S. mitis CIP 103335): 32 µg/mL (≈ 55.5 µM); MIC (E. faecium CIP 54.32): 32 µg/mL (≈ 55.5 µM); MIC (E. faecalis ATCC 29212): > 128 µg/mL; MIC [11]: > 128 µg/mL; MIC [12]: 32 µg/mL (≈ 55.5 µM); MIC [13]: > 128 µg/mL; MIC [14]: > 128 µg/mL; MIC [15]: 16 µg/mL (≈ 27.8 µM); MIC [16]: > 128 µg/mL; MIC [17]: 32 µg/mL (≈ 55.5 µM); MIC [18]: > 128 µg/mL; MIC (S. pneumoniae ATCC 49619): 32 µg/mL (≈ 55.5 µM); MIC [19]: > 128 µg/mL; IC50 ([20]; first value): 3330 nM; IC50 ([20]; second value): 4110 nM
CC(C)(C)OC(=O)NCC(NC(=O)c1c[nH]c2cc(Br)ccc12)c1c[nH]c2cc(Br)ccc12 (stereo not drawn) [Compound 3i, tert-Butyl (2-(6-bromo-1H-indol-3-yl)-2-(6-bromo-1H-indolyl-3-carboxamido)ethyl)carbamate]	1 (≈ 1.74 µM)	2 (≈ 3.47 µM)	2 (≈ 3.47 µM)	1 (≈ 1.74 µM)	2 (≈ 3.47 µM)	2 (≈ 3.47 µM)	1 (≈ 1.74 µM)	1 (≈ 1.74 µM)	1 (≈ 1.74 µM)	1 (≈ 1.74 µM)	2 (≈ 3.47 µM)	2 (≈ 3.47 µM)	2 (≈ 3.47 µM)	91 ± 1	4	100 ± 1	3	91 ± 7	10		MIC (S. pneumoniae ATCC 6303): 32 µg/mL (≈ 55.5 µM); MIC [9]: 32 µg/mL (≈ 55.5 µM); MIC [10]: 32 µg/mL (≈ 55.5 µM); MIC (S. mitis CIP 103335): 64 µg/mL (≈ 111 µM); MIC (E. faecium CIP 54.32): 64 µg/mL (≈ 111 µM); MIC (E. faecalis ATCC 29212): > 128 µg/mL; MIC [11]: > 128 µg/mL; MIC [12]: 64 µg/mL (≈ 111 µM); MIC [13]: > 128 µg/mL; MIC [14]: > 128 µg/mL; MIC [15]: 16 µg/mL (≈ 27.8 µM); MIC [16]: > 128 µg/mL; MIC [17]: 32 µg/mL (≈ 55.5 µM); MIC [18]: > 128 µg/mL; MIC (S. pneumoniae ATCC 49619): 32 µg/mL (≈ 55.5 µM); MIC [19]: > 128 µg/mL; IC50 ([20]; first value): 1900 nM; IC50 ([20]; second value): 2100 nM
COC(=O)C(NC(=O)c1c[nH]c2ccc(Br)cc12)c1c[nH]c2ccc(Br)cc12 (stereo not drawn) [Compound 11, Methyl 2-(5-bromo-1H-indol-3-yl)-2-(5-bromo-1H-indole-3-carboxamido)acetate]	4 (≈ 7.92 µM)	4 (≈ 7.92 µM)	4 (≈ 7.92 µM)	4 (≈ 7.92 µM)	4 (≈ 7.92 µM)	4 (≈ 7.92 µM)	4 (≈ 7.92 µM)	4 (≈ 7.92 µM)	4 (≈ 7.92 µM)	4 (≈ 7.92 µM)	4 (≈ 7.92 µM)	4 (≈ 7.92 µM)	4 (≈ 7.92 µM)	51 ± 5	0	51 ± 1	0	28 ± 9	0	126	
